What was measured:
[1] = Absorbance and fluorescence maximum wavelengths and quantum yields of the CyNA library; assay type: physicochemical
Method in brief: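 Absorption and emission maxima and quantum yields of the 80-member amine-derivatized CyNA library were measured on a plate spectrophotometer.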

[2] = Primary screening of photostability of the CyNA library (time-course fluorescence, 8 h); assay type: physicochemical; conditions: 10 μM in HEPES 100 mM pH 7.4, 2% DMSO
Method in brief: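 CyNA dyes at 10 μM in 100 mM HEPES pH 7.4 with 2% DMSO irradiated by xenon lamp for 8 h. Fluorescence (ex/em 790-820 nm) read every 10 min; stability given as F8h/Fo.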

[3] = test system: mouse macrophage Raw 264.7 cell line; assay: High-throughput cell imaging-based screen of CyNA library; conditions: Raw 264.7 vs mouse splenocytes
Protocol: In order to identify CyNA probes that could selectively stain mouse macrophage Raw 264.7 cell line (a mouse leukemic monocyte macrophage cell line), a library of CyNA compounds was assayed in a high-throughput cell imaging-based screen. The cell images were recorded using an automated imaging microscope system, IMAGEXPRESS MICRO™, and the fluorescent images were analyzed by cellular fluorescence intensity using METAXPRESS® image processing software.

[4] = test system: primary mouse peritoneal cavity cells; assay: Validation of macrophage selectivity (peritoneal cells, Raw 264.7, splenocytes); assay type: cell-based; conditions: 1 μM, 1 hour
Protocol: To validate the selectivity of CyNA-374, primary mouse peritoneal cavity cells were prepared. The identity of the mouse peritoneal cells was confirmed with CD11b macrophage antibody and flow cytometry. Next, the mouse peritoneal cells, Raw 264.7 cells and splenocytes were seeded in parallel. The following day, the cells were incubated with 1 μM CyNA-374 for 1 hour, then analyzed immediately using fluorescence microscopy.

[5] = test system: M1 macrophages (LPS-activated Raw 264.7 cells); assay: Staining of activated (M1) macrophages; assay type: cell-based, mouse; conditions: 1 μM, 1 hour
Protocol: To determine if CyNA-374 could stain activated macrophages, Raw 264.7 cells were activated to M1 macrophages. Raw 264.7 cells were plated at 5×10^6 cells/well and allowed to adhere. In some experiments, the cells were then starved for 12 hours, meaning that cells were washed with phosphate-buffered saline (PBS) and incubated in DMEM supplemented with 1% penicillin/streptomycin for 12 hours, but without 10% FBS. After 12 hours, the cells were exposed to 60 ng/mL LPS and, at the 24-hour time point, the supernatant from the cells stimulated by LPS was collected for measurement of NO2 using the Griess reaction. The unstimulated Raw 264.7 cells produced approximately 8.5 μmol/L NO2, while the stimulated Raw 264.7 (or M1) cells produced approximately 45 μmol/L NO2. The M1 cells were seeded in parallel with the unactivated Raw 264.7 cells and the splenocytes. The cells were incubated with 1 μM CyNA-374 for 1 hour, then analyzed using fluorescence microscopy.

[6] = Fluorescence and photostability of dye-labeled EGFR-IgG2a antibodies; assay type: physicochemical; conditions: conjugated to EGFR-IgG2a, vs ICG label
Protocol: To compare CyNE790 and ICG-sulfo-OSu for in vivo imaging studies, each reactive ester was conjugated to a monoclonal anti-epidermal growth factor receptor (EGFR) antibody.
100 μg of anti-EGFR-IgG2a were washed with PBS using a Microcon 3K filter (Millipore), and re-suspended in 100 μL of Na2CO3—NaHCO3 buffer (pH 9.2). 20 equiv of CyNE790 or ICG-sulfo-OSu (typically 1.0-1.2 μL of a 10 mM solution in DMSO) were added and the whole mixture was shaken in the dark for 2 hours. The excess dye was removed by washing with PBS (3×500 μL) using a Microcon 3K filter (Millipore) (3 rounds at 14,000 rpm at 4° C. for 60 min).
[…] in PBS (pH 7.3) were fixed in a glass coverslide, and irradiated with a diode laser (95 mW, 740 nm, time frame: 500 ms, no delay). Emission was recorded with a NIR-enhanced CCD camera (Andor Technology) adapted to an Eclipse Ti-U microscope (40× magnification, filter cube 750/800), and images were processed using the software NIS-Elements 3.10. The resulting values are represented as means (n=3), and fitted to a non-linear regression one-phase exponential decay (GraphPad Prism 5.0).

[7] = Photobleaching of CyNE790 and ICG-sulfo-OSu in PBS; assay type: physicochemical
From the text: CyNE790 was also compared to ICG-sulfo-OSu, a commercially available succinimidyl ester of ICG (for chemical structures of CyNE790 and ICG-sulfo-OSu, see FIG. 8).

[8] = Photophysical properties of CyNE790 and ICG-sulfo-OSu; assay type: physicochemical
Protocol: FIG. 7A is an absorbance spectrum of 10-μM solutions of CyNA-414, CyNE790, ICG and ICG-sulfo-OSu in DMSO and PBS.
FIG. […]
After corroborating the spectral properties of CyNE790 as a fluorescent NIR dye, its applicability for protein conjugation was assessed by comparing CyNE790 to ICG-sulfo-OSu, the commercially available succinidimyl ester of ICG. […] However, the application of ICG to molecular imaging has been limited because its fluorescence is drastically quenched after protein conjugation.

[9] = Formation of aggregates: absorbance spectrum in DMSO vs PBS; assay type: physicochemical; conditions: spectral profile DMSO vs PBS

With `CCCN1/C(=C/C=C2\CCCC(/C=C/C3=[N+](CCC)c4ccccc4C3(C)C)=C2N(Cc2ccccc2)C(C)=O)C(C)(C)c2ccccc21` [CyNA-374] the “λabs, absorbance maximum wavelength” value ([1]; CyNA library) was 806 nm, the “λem, fluorescence maximum wavelength” value ([1]; CyNA library) was 821 nm and the “φ, quantum yield” value ([1]; in DMSO, Cardiogreen as standard) was 0.14. For the same compound, the F/Fo, fluorescent intensity at 8 hours vs 0 hours [2] was 94%, the “max RFU, maximum relative fluorescence units” value [2] was 1224.6 and the “selective staining in cell imaging screen” value [3] was “selectively stained mouse macrophages, but not mouse splenocytes”. For the same compound, the “staining by fluorescence microscopy” value [4] was “stained both the Raw 264.7 cells and the mouse peritoneal cells” and the “staining of activated macrophages” value [5] was “stained both the unactivated Raw 264.7 cells and the M1 cells”.

In the case of `CCCN1/C(=C/C=C2\CCCC(/C=C/C3=[N+](CCC)c4ccccc4C3(C)C)=C2N(CCCN2CCCCC2C)C(=O)CCCC(=O)ON2C(=O)CCC2=O)C(C)(C)c2ccccc21` (stereo not shown) [CyNE790], the “fluorescence intensity and photostability after protein conjugation” value [6] is reported as “maintains its superior fluorescence intensity and photostability”, the “photostability relative to ICG-sulfo-OSu” value ([7]; 10 μM in PBS pH 7.3, 1% DMSO) is reported as 15 fold and the “maximum relative fluorescence units (rfu)” value ([7]; photobleaching experiments) is reported as 708 rfu. For the same compound, the “fluorescent properties compared to ICG and ICG-sulfo-OSu” value ([8]; 10 μM in PBS, 1% DMSO, excitation 760 nm, FIG. 7B) was “superior fluorescent properties to both ICG and ICG-sulfo-OSu”, the “Quantum Yield (DMSO)” value ([8]; DMSO, ICG as standard) was 13% and the “Quantum Yield (aqueous media)” value ([8]; PBS pH 7.3, 0.1% DMSO) was 3.3%. For the same compound, the “ε (aqueous media)” value ([8]; PBS pH 7.3, 0.1% DMSO) was 108,000 M^−1 · cm^−1 and the “formation of aggregates in aqueous solution” value [9] was “little to no formation of aggregates”.

— patent US9201014B2, “Development of photostable near-IR cyanine dyes for in vivo imaging” (National University of Singapore, priority 2010, dated 2015)
